In ChEMBL document CHEMBL4002566, “S-substituted 3,5-dinitrophenyl 1,3,4-oxadiazole-2-thiols and tetrazole-5-thiols as highly efficient antitubercular agents” (Eur J Med Chem, 2017):
≈ marks a conversion by molar mass, not a printed value.

Columns and labels:
Type in all cases: functional
[1] = test system: Mycobacterium tuberculosis; assay: Antimycobacterial activity against multidrug-resistant Mycobacterium tuberculosis 8666/2010 after 14 days by micromethod; conditions: 8666/2010, 336 h
[2] = test system: Mycobacterium tuberculosis; assay: Antimycobacterial activity against multidrug-resistant Mycobacterium tuberculosis 234/2005 after 14 days by micromethod; conditions: 234/2005, 336 h
[3] = test system: Mycobacterium tuberculosis; assay: Antimycobacterial activity against multidrug-resistant Mycobacterium tuberculosis Praha 131 after 21 days by micromethod; conditions: Praha 131, 504 h
[4] = test system: Mycobacterium tuberculosis; assay: Antimycobacterial activity against multidrug-resistant Mycobacterium tuberculosis 9449/2007 after 14 days by micromethod; conditions: 9449/2007, 336 h
[5] = test system: Mycobacterium tuberculosis; assay: Antimycobacterial activity against multidrug-resistant Mycobacterium tuberculosis Praha 1 after 21 days by micromethod; conditions: Praha 1, 504 h
[6] = test system: Mycobacterium tuberculosis; assay: Antimycobacterial activity against multidrug-resistant Mycobacterium tuberculosis 7357/1998 after 14 days by micromethod; conditions: 7357/1998, 336 h
[7] = test system: Mycobacterium tuberculosis; assay: Antimycobacterial activity against multidrug-resistant Mycobacterium tuberculosis 7357/1998 after 21 days by micromethod; conditions: 7357/1998, 504 h
[8] = test system: Mycobacterium tuberculosis; assay: Antimycobacterial activity against multidrug-resistant Mycobacterium tuberculosis Praha 4 after 21 days by micromethod; conditions: Praha 4, 504 h
[9] = test system: Mycobacterium tuberculosis; assay: Antimycobacterial activity against multidrug-resistant Mycobacterium tuberculosis 8666/2010 after 21 days by micromethod; conditions: 8666/2010, 504 h
[10] = test system: Mycobacterium tuberculosis; assay: Antimycobacterial activity against multidrug-resistant Mycobacterium tuberculosis 234/2005 after 21 days by micromethod; conditions: 234/2005, 504 h
[11] = test system: Mycobacterium tuberculosis; assay: Antimycobacterial activity against multidrug-resistant Mycobacterium tuberculosis Praha 4 after 14 days by micromethod; conditions: Praha 4, 336 h
[12] = test system: Mycobacterium tuberculosis; assay: Antimycobacterial activity against multidrug-resistant Mycobacterium tuberculosis Praha 131 after 14 days by micromethod; conditions: Praha 131, 336 h
[13] = test system: Mycobacterium tuberculosis; assay: Antimycobacterial activity against multidrug-resistant Mycobacterium tuberculosis 9449/2007 after 21 days by micromethod; conditions: 9449/2007, 504 h
[14] = test system: Mycobacterium tuberculosis; assay: Antimycobacterial activity against multidrug-resistant Mycobacterium tuberculosis Praha 1 after 14 days by micromethod; conditions: Praha 1, 336 h

| SMILES | MIC [1] [µM] | MIC [2] [µM] | MIC [3] [µM] | MIC [4] [µM] | MIC [5] [µM] | MIC [6] [µM] | MIC [7] [µM] | MIC [8] [µM] | MIC [9] [µM] | MIC [10] [µM] | MIC [11] [µM] | MIC [12] [µM] | MIC [13] [µM] | MIC [14] [µM] |
| --- | --- | --- | --- | --- | --- | --- | --- | --- | --- | --- | --- | --- | --- | --- |
| O=[N+]([O-])c1cc(-c2nnc(SCc3ccccc3Cl)o2)cc([N+](=O)[O-])c1 | 0.06 (≈ 0.0236 µg/mL) | 0.06 (≈ 0.0236 µg/mL) | 0.125 (≈ 0.0491 µg/mL) | 0.06 (≈ 0.0236 µg/mL) | 0.125 (≈ 0.0491 µg/mL) | 0.06 (≈ 0.0236 µg/mL) | 0.125 (≈ 0.0491 µg/mL) | 0.06 (≈ 0.0236 µg/mL) | 0.125 (≈ 0.0491 µg/mL) | 0.125 (≈ 0.0491 µg/mL) | 0.03 (≈ 0.0118 µg/mL) | 0.06 (≈ 0.0236 µg/mL) | 0.125 (≈ 0.0491 µg/mL) | 0.06 (≈ 0.0236 µg/mL) |
| O=[N+]([O-])c1cc(-c2nnc(SCc3ccccc3)o2)cc(C(F)(F)F)c1 | 1 (≈ 0.381 µg/mL) | 1 (≈ 0.381 µg/mL) | 2 (≈ 0.763 µg/mL) | 2 (≈ 0.763 µg/mL) | 1 (≈ 0.381 µg/mL) | 1 (≈ 0.381 µg/mL) | 2 (≈ 0.763 µg/mL) | 1 (≈ 0.381 µg/mL) | 2 (≈ 0.763 µg/mL) | 1 (≈ 0.381 µg/mL) | 1 (≈ 0.381 µg/mL) | 1 (≈ 0.381 µg/mL) | 2 (≈ 0.763 µg/mL) | 1 (≈ 0.381 µg/mL) |
| O=[N+]([O-])c1cc(-c2nnc(SCc3cccc(Cl)c3)o2)cc([N+](=O)[O-])c1 | 0.03 (≈ 0.0118 µg/mL) | 0.03 (≈ 0.0118 µg/mL) | 0.06 (≈ 0.0236 µg/mL) | 0.03 (≈ 0.0118 µg/mL) | 0.06 (≈ 0.0236 µg/mL) | 0.03 (≈ 0.0118 µg/mL) | 0.06 (≈ 0.0236 µg/mL) | 0.06 (≈ 0.0236 µg/mL) | 0.06 (≈ 0.0236 µg/mL) | 0.06 (≈ 0.0236 µg/mL) | 0.03 (≈ 0.0118 µg/mL) | 0.03 (≈ 0.0118 µg/mL) | 0.06 (≈ 0.0236 µg/mL) | 0.03 (≈ 0.0118 µg/mL) |
| CN[C@@H]1[C@H](O[C@H]2[C@H](O[C@H]3[C@H](O)[C@@H](O)[C@H](N=C(N)N)[C@@H](O)[C@@H]3N=C(N)N)O[C@@H](C)[C@]2(O)C=O)O[C@@H](CO)[C@H](O)[C@H]1O [STREPTOMYCIN] | > 32 | 32 (≈ 18.6 µg/mL) |  | > 32 |  | > 32 |  |  |  |  | > 32 | > 32 |  | 16 (≈ 9.31 µg/mL) |
| O=[N+]([O-])c1cc(-n2nnnc2SCc2ccc(Cl)cc2)cc([N+](=O)[O-])c1 | 0.5 (≈ 0.196 µg/mL) | 0.5 (≈ 0.196 µg/mL) | 0.5 (≈ 0.196 µg/mL) | 0.5 (≈ 0.196 µg/mL) | 0.5 (≈ 0.196 µg/mL) | 0.5 (≈ 0.196 µg/mL) | 0.5 (≈ 0.196 µg/mL) | 0.5 (≈ 0.196 µg/mL) | 0.5 (≈ 0.196 µg/mL) | 0.5 (≈ 0.196 µg/mL) | 0.5 (≈ 0.196 µg/mL) | 0.5 (≈ 0.196 µg/mL) | 0.5 (≈ 0.196 µg/mL) | 0.5 (≈ 0.196 µg/mL) |
| COc1ccc(CSc2nnc(-c3cc([N+](=O)[O-])cc([N+](=O)[O-])c3)o2)cc1 | 0.03 (≈ 0.0117 µg/mL) | 0.03 (≈ 0.0117 µg/mL) | 0.06 (≈ 0.0233 µg/mL) | 0.03 (≈ 0.0117 µg/mL) | 0.06 (≈ 0.0233 µg/mL) | 0.03 (≈ 0.0117 µg/mL) | 0.06 (≈ 0.0233 µg/mL) | 0.06 (≈ 0.0233 µg/mL) | 0.06 (≈ 0.0233 µg/mL) | 0.06 (≈ 0.0233 µg/mL) | 0.03 (≈ 0.0117 µg/mL) | 0.03 (≈ 0.0117 µg/mL) | 0.06 (≈ 0.0233 µg/mL) | 0.03 (≈ 0.0117 µg/mL) |
| O=[N+]([O-])c1cc(-c2nnc(SCc3ccc(Cl)cc3)o2)cc([N+](=O)[O-])c1 | 0.03 (≈ 0.0118 µg/mL) | 0.03 (≈ 0.0118 µg/mL) | 0.06 (≈ 0.0236 µg/mL) | 0.03 (≈ 0.0118 µg/mL) | 0.06 (≈ 0.0236 µg/mL) | 0.03 (≈ 0.0118 µg/mL) | 0.06 (≈ 0.0236 µg/mL) | 0.06 (≈ 0.0236 µg/mL) | 0.06 (≈ 0.0236 µg/mL) | 0.06 (≈ 0.0236 µg/mL) | 0.03 (≈ 0.0118 µg/mL) | 0.03 (≈ 0.0118 µg/mL) | 0.06 (≈ 0.0236 µg/mL) | 0.03 (≈ 0.0118 µg/mL) |
| CC[C@@H](CO)NCCN[C@@H](CC)CO [ETHAMBUTOL] | 16 (≈ 3.27 µg/mL) | 16 (≈ 3.27 µg/mL) |  | 8 (≈ 1.63 µg/mL) |  | 16 (≈ 3.27 µg/mL) |  |  |  |  | 16 (≈ 3.27 µg/mL) | 32 (≈ 6.54 µg/mL) |  | 32 (≈ 6.54 µg/mL) |
| CC1COc2c(N3CCN(C)CC3)c(F)cc3c(=O)c(C(=O)O)cn1c23 (stereo not given) [OFLOXACIN] | 8 (≈ 2.89 µg/mL) | 0.5 (≈ 0.181 µg/mL) |  | 2 (≈ 0.723 µg/mL) |  | 8 (≈ 2.89 µg/mL) |  |  |  |  | > 16 | 16 (≈ 5.78 µg/mL) |  | 1 (≈ 0.361 µg/mL) |
